pIC50: −log10 of the molar value. Read-outs that look alike come from different tables or passages of the source.
Target: T1, recominbant human tryptase, beta, from lung (Homo sapiens, UniProt P20231)
T1 construct: purchased Promega or Enzo Life Sciences G5631 or BML-SE418
Experiment: Inhibition of tryptase activity by monomers and multimers (Boc-Gln-Ala-Arg-AMC fluorescence)
Type: biochemical
Conditions: monomers against tryptase
Procedure: Stock solutions of recominbant human tryptase, beta, from lung (Promega: catalog number G5631, or Enzo Life Sciences: catalog number BML-SE418) were made at 30 μM, in solution with 5 μM heparin sulfate and 1 M NaCl. Monomer tryptase inhibitor stock solutions were made at 50 mM in DMSO. Test substance plates were made at 1.2× the final concentration in assay buffer (50 mM HEPES, 150 mM NaCl, 100 μM EDTA, pH 7.4, 0.02% Tween-20). A final concentration of 1 nM tryptase was used. When required, test substances were diluted in water immediately before use in 10-fold serial dilutions. After the indicated incubation time, the test subtance-tryptase solution at 1.2× concentration, was diluted into assay buffer containing a final concentration of 200 μM N-tert-butoxycarbonyl-Gln-Ala-Arg-AMC HBr [AMC=7-amino-4-methylcoumarin] (Boc-Gln-Ala-Arg-AMC; Enzo Life Sciences: catalog number BML-P237) to a final volume of 50 μl in black opaque round bottom 96 well plates (Corning, catalog number 3792). The release of fluorescent AMC was immediately measured every 30 seconds over 15-30 minutes at an excitation wavelength of 367 nm, monitoring emission at 468 nm on a Spectramax M5 (Molecular Devices) microplate reader. The Softmax Pro (Molecular Devices) and Graphpad prism software were used to determine Vmax, and concentration-response curve IC50s, respectively.

[1] = Table 5, read-out: Monomer IC50 range
[2] = read-out: IC50 range group of additional monomers (boronic acid, benzooxaborole, ligands)
[3] = entry marked (1:10), read-out: IC50 range group of additional monomers marked (1:10)

T1 sequence (P20231 31-275): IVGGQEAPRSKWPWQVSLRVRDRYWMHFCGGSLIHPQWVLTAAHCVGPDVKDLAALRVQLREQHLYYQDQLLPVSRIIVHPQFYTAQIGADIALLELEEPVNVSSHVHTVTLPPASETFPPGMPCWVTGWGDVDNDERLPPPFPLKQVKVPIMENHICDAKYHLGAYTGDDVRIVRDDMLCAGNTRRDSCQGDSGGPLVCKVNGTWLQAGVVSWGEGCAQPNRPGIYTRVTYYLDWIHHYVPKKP

| SMILES | pIC50 [1] | pIC50 [2] | pIC50 [3] |
| --- | --- | --- | --- |
| NCc1cccc(C2CCN(C(=O)Cc3cc(B(O)O)ccc3F)CC2)c1 [T57, 3-(2-(4-(3-(aminomethyl)phenyl)piperidin-1-yl)-2-oxoethyl)-4-fluorophenylboronic acid] | 5.00 to 6.00 | 5.00 to 6.00 |  |
| NCc1cccc(C2CCN(C(=O)Cc3ccc(B(O)O)cc3F)CC2)c1 [T58, 4-(2-(4-(3-(aminomethyl)phenyl)piperidin-1-yl)-2-oxoethyl)-3-fluorophenylboronic acid] | 5.00 to 6.00 | 5.00 to 6.00 |  |
| NCc1cccc(C2CCN(C(=O)c3cc4ccc(B(O)O)cc4[nH]3)CC2)c1 [T59, 2-(4-(3-(aminomethyl)phenyl)piperidine-1-carbonyl)-1H-indol-6-ylboronic acid] | 5.00 to 6.00 | 5.00 to 6.00 |  |
| NCc1cccc(C2CCN(C(=O)c3ccc(O)c(CO)c3)CC2)c1 [T65, (4-(3-(aminomethyl)phenyl)piperidin-1-yl)(4-hydroxy-3-(hydroxymethyl)phenyl)methanone] | 6.00 to 10.00 | 6.00 to 10.00 |  |
| NCc1cccc(C2CCN(C(=O)c3ccc(O)c(C(N)=O)c3)CC2)c1 [T66, 5-(4-(3-(aminomethyl)phenyl)piperidine-1-carbonyl)-2-hydroxybenzamide] | 6.00 to 10.00 | 6.00 to 10.00 |  |
| CC1(O)CN(c2cccc(C(=O)N3CCC(c4cccc(CN)c4)CC3)c2)CC1(C)O (centres unmarked) [T67, (4-(3-(aminomethyl)phenyl)piperidin-1-yl)(3-(3,4-dihydroxy-3,4-dimethylpyrrolidin-1-yl)phenyl)methanone] | 6.00 to 10.00 | 6.00 to 10.00 |  |
| NCc1cccc(C2CCN(C(=O)c3ccc(O)c(O)c3O)CC2)c1 [T68, (4-(3-(aminomethyl)phenyl)piperidin-1-yl)(2,3,4-trihydroxyphenyl)methanone] | 5.00 to 6.00 | 5.00 to 6.00 |  |
| NCc1cccc(C2CCN(C(=O)c3cc(O)c(O)c(O)c3)CC2)c1 [T69, (4-(3-(aminomethyl)phenyl)piperidin-1-yl)(3,4,5-trihydroxyphenyl)methanone] | 5.00 to 6.00 | 5.00 to 6.00 |  |
| NCc1cccc(C2CCN(C(=O)c3cccc(NC(=O)c4cccc(O)c4O)c3)CC2)c1 [T70, N-(3-(4-(3-(aminomethyl)phenyl)piperidine-1-carbonyl)phenyl)-2,3-dihydroxybenzamide] | 6.00 to 10.00 | 6.00 to 10.00 |  |
| NCc1cccc(C2CCN(C(=O)c3cccc(NC(=O)c4ccc(O)c(O)c4)c3)CC2)c1 [T71, N-(3-(4-(3-(aminomethyl)phenyl)piperidine-1-carbonyl)phenyl)-3,4-dihydroxybenzamide] | 6.00 to 10.00 | 6.00 to 10.00 |  |
| CC(O)(COc1cccc(C(=O)N2CCC(c3cccc(CN)c3)CC2)c1)C(=O)O (centres unmarked) [T72, 3-(3-(4-(3-(aminomethyl)phenyl)piperidine-1-carbonyl)phenoxy)-2-hydroxy-2-methylpropanoic acid] | 6.00 to 10.00 | 6.00 to 10.00 |  |
| NCc1cccc(C2CCN(C(=O)c3cccc(OCC(O)(C(=O)O)c4ccccc4)c3)CC2)c1 (centres unmarked) [T73, 3-(3-(4-(3-(aminomethyl)phenyl)piperidine-1-carbonyl)phenoxy)-2-hydroxy-2-phenylpropanoic acid] | 6.00 to 10.00 | 6.00 to 10.00 |  |
| NCc1cccc(C2CCN(C(=O)c3ccc(CO)c(O)c3)CC2)c1 [T74, (4-(3-(aminomethyl)phenyl)piperidin-1-yl)(3-hydroxy-4-(hydroxymethyl)phenyl)methanone] | 6.00 to 10.00 |  | 6.00 to 10.00 |
| NCc1ccc2c(c1)C1(CCN(C(=O)c3ccc(CO)c(O)c3)CC1)CO2 [T74SPIRO] |  | 6.00 to 10.00 |  |
| NCc1cccc(C2CCN(C(=O)c3ccc(C(N)=O)c(O)c3)CC2)c1 [T75, 4-(4-(3-(aminomethyl)phenyl)piperidine-1-carbonyl)-2-hydroxybenzamide] | 5.00 to 6.00 | 5.00 to 6.00 |  |
| CONC(=O)c1ccc(C(=O)N2CCC(c3cccc(CN)c3)CC2)cc1O [T75A, 4-(4-(3-(aminomethyl)phenyl)piperidine-1-carbonyl)-2-hydroxy-N-methoxybenzamide] | 6.00 to 10.00 | 6.00 to 10.00 |  |
| CC(C)(C)ONC(=O)c1ccc(C(=O)N2CCC3(CC2)COc2ccc(CN)cc23)cc1O [T75AOTBSPIRO] |  | 6.00 to 10.00 |  |
| CC(C)(C)ONC(=O)c1ccc(C(=O)N2CCC(c3cccc(CN)c3)CC2)cc1O [T75AOTB] |  | 5.00 to 6.00 |  |
| NCc1ccc2c(c1)C1(CCN(C(=O)c3ccc(C(=O)NOc4ccccc4)c(O)c3)CC1)CO2 [T75APSPIRO] |  | 6.00 to 10.00 |  |
| NCc1cccc(C2CCN(C(=O)c3ccc(C(=O)NOc4ccccc4)c(O)c3)CC2)c1 [T75AP] |  |  | 6.00 to 10.00 |
| CONC(=O)c1ccc(C(=O)N2CCC3(CC2)COc2ccc(CN)cc23)cc1O [T75ASPIRO] |  |  | 6.00 to 10.00 |

| SMILES | pIC50 [1] | pIC50 [2] | pIC50 [3] |
| --- | --- | --- | --- |
| NCc1cccc(C2CCN(C(=O)/C=C/c3ccc(C(N)=O)c(O)c3)CC2)c1 [T76, (E)-4-(3-(4-(3-(aminomethyl)phenyl)piperidin-1-yl)-3-oxoprop-1-enyl)-2-hydroxybenzamide] | 6.00 to 10.00 | 6.00 to 10.00 |  |
| CONC(=O)c1ccc(/C=C/C(=O)N2CCC(c3cccc(CN)c3)CC2)cc1O [T76A, (E)-4-(3-(4-(3-(aminomethyl)phenyl)piperidin-1-yl)-3-oxoprop-1-enyl)-2-hydroxy-N-methoxybenzamide] | 6.00 to 10.00 | 6.00 to 10.00 |  |
| NCc1cccc(C2CCN(C(=O)c3cc(O)c(O)cc3O)CC2)c1 [T77, (4-(3-(aminomethyl)phenyl)piperidin-1-yl)(2,4,5-trihydroxyphenyl)methanone] | 4.19 to 5.00 | 4.19 to 5.00 |  |
| NCc1cccc(C2CCN(C(=O)c3cc(O)c(O)c(Cl)c3)CC2)c1 [T78, (4-(3-(aminomethyl)phenyl)piperidin-1-yl)(3-chloro-4,5-dihydroxyphenyl)methanone] | 6.00 to 10.00 | 6.00 to 10.00 |  |
| NCc1ccc2c(c1)C1(CCN(C(=O)c3cc(O)c(O)c(Cl)c3)CC1)CO2 [T78SPIRO, (5-(aminomethyl)-2H-spiro[benzofuran-3,4′-piperidine]-1′-yl)(3-chloro-4,5-dihydroxyphenyl)methanone] | 6.00 to 10.00 | 6.00 to 10.00 |  |
| CC(O)(Cn1ccc2cc(C(=O)N3CCC(c4cccc(CN)c4)CC3)ccc21)C(=O)O (centres unmarked) [T81, 3-(5-(4-(3-(aminomethyl)phenyl)piperidine-1-carbonyl)-1H-indol-1-yl)-2-hydroxy-2-methylpropanoic acid] | 6.00 to 10.00 |  | 6.00 to 10.00 |
| CC(O)(Cn1ccc2ccc(C(=O)N3CCC(c4cccc(CN)c4)CC3)cc21)C(=O)O (centres unmarked) [T82, 3-(6-(4-(3-(aminomethyl)phenyl)piperidine-1-carbonyl)-1H-indol-1-yl)-2-hydroxy-2-methylpropanoic acid] | 6.00 to 10.00 |  | 6.00 to 10.00 |
| NCc1cccc(C2CCN(C(=O)c3ccc4c(ccn4CC(O)(C(=O)O)c4ccccc4)c3)CC2)c1 (centres unmarked) [T83, 3-(5-(4-(3-(aminomethyl)phenyl)piperidine-1-carbonyl)-1H-indol-1-yl)-2-hydroxy-2-phenylpropanoic acid] | 6.00 to 10.00 |  | 6.00 to 10.00 |
| NCc1cccc(C2CCN(C(=O)c3ccc4ccn(CC(O)(C(=O)O)c5ccccc5)c4c3)CC2)c1 (centres unmarked) [T84, 3-(6-(4-(3-(aminomethyl)phenyl)piperidine-1-carbonyl)-1H-indol-1-yl)-2-hydroxy-2-phenylpropanoic acid] | 6.00 to 10.00 |  | 6.00 to 10.00 |
| CONC(=O)c1ccc(CC(=O)N2CCC(c3cccc(CN)c3)CC2)cc1O [T85 Å] |  |  | 6.00 to 10.00 |
| NCc1cccc(C2CCN(C(=O)/C=C/c3ccc(O)c(C(N)=O)c3)CC2)c1 [T86, (E)-5-(3-(4-(3-(aminomethyl)phenyl)piperidin-1-yl)-3-oxoprop-1-enyl)-2-hydroxybenzamide] | 5.00 to 6.00 | 5.00 to 6.00 |  |
| CONC(=O)c1cc(C(=O)N2CCC(c3cccc(CN)c3)CC2)ccc1O [T92, 5-(4-(3-(aminomethyl)phenyl)piperidine-1-carbonyl)-2-hydroxy-N-methoxybenzamide] | 5.00 to 6.00 | 5.00 to 6.00 |  |
| NCc1cccc(C2CCN(C(=O)c3ccc(O)c(C(=O)NOc4ccccc4)c3)CC2)c1 [T92OPH] |  | 5.00 to 6.00 |  |
| NCc1ccc2c(c1)C1(CCN(C(=O)c3ccc(O)c(C(=O)NOc4ccccc4)c3)CC1)CO2 [T92PHSPIRO] |  | 5.00 to 6.00 |  |
| CONC(=O)c1cc(C(=O)N2CCC3(CC2)COc2ccc(CN)cc23)ccc1O [T92SPIRO] |  | 6.00 to 10.00 |  |
| NCc1cccc(C2CCN(C(=O)c3cc(=O)oc4c(O)c(O)ccc34)CC2)c1 [T96] |  | 5.00 to 6.00 |  |
| NCc1cccc(C2CCN(C(=O)Cc3cc(=O)oc4cc(O)c(O)cc34)CC2)c1 [T97, 4-(2-(4-(3-(aminomethyl)phenyl)piperidin-1-yl)-2-oxoethyl)-6,7-dihydroxy-2H-chromen-2-one] | 5.00 to 6.00 | 5.00 to 6.00 |  |
| NCc1cccc(C2CCN(C(=O)Cc3cc(=O)oc4c(O)c(O)ccc34)CC2)c1 [T98] |  | 4.19 to 5.00 |  |
| Cc1c(CC(=O)N2CCC(c3cccc(CN)c3)CC2)c(=O)oc2cc(O)c(O)cc12 [T99] |  | 5.00 to 6.00 |  |
| NCc1cccc(C2CCN(C(=O)c3cc4cc(O)c(O)cc4oc3=O)CC2)c1 [T100] | 4.19 to 5.00 | 4.19 to 5.00 |  |
| Cc1c(CC(=O)N2CCC(c3cccc(CN)c3)CC2)c(=O)oc2c(O)c(O)ccc12 [T101] | 6.00 to 10.00 | 6.00 to 10.00 |  |

— patent US11970448B2, “Monomers capable of dimerizing in an aqueous solution, and methods of using same” (CORNELL UNIVERSITY, priority 2011, dated 2024)
